Data set [1] in a line: Intrinsic Clearance in Microsomes (dog). The following applies: liver microsomes, pH 7.4, 2 μM test compound, read-out: In Vitro Microsomal Intrinsic Clearance, Dog CL int (converted). The data set is classed as in vitro ADME. As for the experimental part: (§1) The following reagents and stock solutions are required for determination of microsomal clearance.
(§2) • 1. 0.1 M potassium phosphate buffer, pH 7.4: • Stock A (1.0 M): 136.5 g of monobasic potassium phosphate (Sigma #P5379) in 1 L of nanopure water. • Stock B (1.0 M): 174.2 g of dibasic potassium phosphate (Sigma #P8281) in 1 L of nanopure water. • Mix 40.5 mL of stock B+9.5 mL of stock A, adjust pH with monobasic potassium phosphate, qs to 500 mL with nanopure water to give 0.1M potassium phosphate buffer, pH 7.4. • 2. […] NADPH: β-nicotinamide adenine dinucleotide phosphate, reduced form (Sigma #N1630) • 4. UDPGA: Uridine 5′-Diphosphote Glucuronic Acid, Triamnonium salt (Sigma #U-5625) • 5. Alamethicin (Sigma #A-4665-25) • 6. MgCl2: Magnesium chloride (Sigma #M8266) • 7. DMSO: Dimethyl sulfoxide (Sigma #D4540) • 8. 7EC: 7-Ethoxycoumarine (Sigma #E1379), positive control. • 9. Carbutamide (Aldrich cat #38157-8), internal standard. Stock Solutions: • 1. 10 mM stock solution of test compound in DMSO • 200 μM test solution of test compound: 10 μL of 10 mM test compound stock solution+490 μL of 75% ACN/water • 2. 10 mM stock solution of 7-Ethoxycoumarin in DMSO (positive control) • 200 μM test solution of 7-Ethoxycoumarine: 10 μL of 10 mM 7EC stock solution+490 μL of 75% ACN/water. • 3. 10 mM carbutamide stock (internal standard): Dissolve 2.71 mg of carbutimide in 1 mL DMSO. • 1 μM carbutamide solution: 100 μL of 10 mM stock solution in • 1 L of acetonitrile, store at 4° C. • 4. 3 mM MgCl2 in 0.1 M K-phosphate buffer: • Dissolve 28.5 mg of anhydrous MgCl2 in 100 mL of 0.1 M K-phosphate buffer, pH 7.4. • 5. 4× Stock Solution of Cofactors Mixture
(§3) 16 mM NADPH in 0.1 M K-phosphate buffer, pH 7.4 containing MgCl2.
(§4) 20 mM UDPGA in 0.1 M K-phosphate buffer, pH 7.4 containing MgCl2
(§5) Aliquot equal volume of stock solution of NADPH and UDPGA to make the final stock solution of cofactor mixture as follows:
(§6) 10 mM UDPGA • 6. Add 1.25 mL of methanol directly to the bottle of alamethicin. Invert 10 times to dissolve the alamethicin. This yields a 20 mg/ml solution of alamethicin. […]

In another data set the target is T1, purified human HDAC6 (Homo sapiens, UniProt Q9UBN7).
T1 construct: purchased BPS Bioscience 5006
T1 sequence (Q9UBN7 1-1215): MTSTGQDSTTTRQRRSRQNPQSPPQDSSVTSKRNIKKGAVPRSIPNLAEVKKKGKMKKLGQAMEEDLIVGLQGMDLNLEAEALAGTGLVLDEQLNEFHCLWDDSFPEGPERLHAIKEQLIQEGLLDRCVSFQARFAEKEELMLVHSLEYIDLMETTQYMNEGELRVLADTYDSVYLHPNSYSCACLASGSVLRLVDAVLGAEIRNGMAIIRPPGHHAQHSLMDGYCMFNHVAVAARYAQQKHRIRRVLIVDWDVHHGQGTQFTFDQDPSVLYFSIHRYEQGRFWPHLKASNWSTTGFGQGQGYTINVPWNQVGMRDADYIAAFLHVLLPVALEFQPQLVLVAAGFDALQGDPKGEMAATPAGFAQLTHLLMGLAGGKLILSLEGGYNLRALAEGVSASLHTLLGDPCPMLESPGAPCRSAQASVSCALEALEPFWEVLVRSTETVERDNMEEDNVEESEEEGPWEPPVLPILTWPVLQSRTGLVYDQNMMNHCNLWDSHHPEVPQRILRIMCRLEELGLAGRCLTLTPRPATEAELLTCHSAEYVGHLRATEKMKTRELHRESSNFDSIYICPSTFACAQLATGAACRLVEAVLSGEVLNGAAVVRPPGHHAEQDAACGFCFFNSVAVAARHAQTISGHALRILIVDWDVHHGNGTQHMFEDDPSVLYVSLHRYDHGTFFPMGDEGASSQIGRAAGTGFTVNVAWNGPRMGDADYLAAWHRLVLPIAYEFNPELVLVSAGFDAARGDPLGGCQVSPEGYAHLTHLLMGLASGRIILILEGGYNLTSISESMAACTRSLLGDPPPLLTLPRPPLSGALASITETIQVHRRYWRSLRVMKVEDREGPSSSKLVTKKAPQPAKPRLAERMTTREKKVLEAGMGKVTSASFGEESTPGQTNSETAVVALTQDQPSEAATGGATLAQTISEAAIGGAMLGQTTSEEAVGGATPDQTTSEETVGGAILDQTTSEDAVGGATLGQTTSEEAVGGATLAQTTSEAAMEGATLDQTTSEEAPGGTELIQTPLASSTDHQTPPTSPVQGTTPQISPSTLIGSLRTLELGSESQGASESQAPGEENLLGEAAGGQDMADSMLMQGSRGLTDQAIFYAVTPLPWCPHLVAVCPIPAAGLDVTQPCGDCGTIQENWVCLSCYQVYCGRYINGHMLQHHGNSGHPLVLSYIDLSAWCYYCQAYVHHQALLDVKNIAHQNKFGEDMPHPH
Kind of data set: HDAC6 Enzyme Assay. The data set is classed as biochemical. The settings on record: HDAC6, 0.37 μM concentration; read-out: Percentage Inhibition (%). As for the experimental part:
To measure the inhibition of HDAC6 activity, purified human HDAC6 (BPS Bioscience; Cat. No. 5006) is incubated with substrate Ac-Arg-Gly-Lys(Ac)-AMC peptide (Bachem Biosciences; Cat. No. I-1925) for 1 hour at 30° C. in the presence of test compounds or vehicle DMSO control. The reaction is stopped with the HDAC inhibitor trichostatin A (Sigma; Cat. No. T8552) and the amount of Arg-Gly-Lys-AMC generated is quantitated by digestion with trypsin (Sigma; Cat. No. T1426) and subsequent measurement of the amount of AMC released using a fluorescent plate reader (Pherastar; BMG Technologies) set at Ex 340 nm and Em 460 nm. Concentration response curves are generated by calculating the fluorescence increase in test compound-treated samples relative to DMSO-treated controls, and percentage inhibition values at a single concentration or enzyme inhibition (IC50) values are determined from those curves. One skilled in the art will appreciate that the values generated either as percentage inhibition at a single concentration or IC50 values are subject to experimental variation.

Data set [2] is described as follows: Intrinsic Clearance in Microsomes (rat). The data set is classed as in vitro ADME. The settings on record: liver microsomes, pH 7.4, 2 μM test compound, read-out: In Vitro Microsomal Intrinsic Clearance, Rat CL int (converted). How it is done: as §1, §2, §3, §4, §5, §6
(Microsomes from liver hold many membrane-bound enzymes, among them those of drug oxidation.)

Data set [3] can be described thus: Intrinsic Clearance in Microsomes (human). The format is in vitro ADME. The settings on record: liver microsomes, pH 7.4, 2 μM test compound, read-out: In Vitro Microsomal Intrinsic Clearance, Human CL int. How it is done: as §1, §2, §3, §4, §5, §6

Regarding `CC1(C(=O)N2CCc3cc(C(=O)NO)ccc3C2)CCNCC1` [Compound I-1, N-hydroxy-2-[(4-methylpiperidin-4-yl)carbonyl]-1,2,3,4-tetrahydroisoquinoline-6-carboxamide], the results for the CLint scaled at 2 µM in data set [1], in data set [2] and in data set [3] were under 7.83 mL/min/kg, under 14.2 mL/min/kg and under 6.33 mL/min/kg, respectively. In addition, the inhibition (commonly the percentage by which the read-out fell short of the control) at 0.37 µM on purified human HDAC6 was 79.7%.

For `CCN1CCC(C)(C(=O)N2CCc3cc(C(=O)NO)ccc3C2)CC1` [Compound I-2, 2-[(1-ethyl-4-methylpiperidin-4-yl)carbonyl]-N-hydroxy-1,2,3,4-tetrahydroisoquinoline-6-carboxamide], the CLint scaled at 2 µM was under 7.83 mL/min/kg in data set [1], under 14.2 mL/min/kg in data set [2] and under 6.33 mL/min/kg in data set [3]. Besides, the inhibition at 0.37 µM on purified human HDAC6 was 78.3%.

Regarding `O=C(NO)c1ccc2c(c1)CCN(Cc1ccc(C3CCNCC3)cc1)C2` [Compound I-3, N-hydroxy-2-(4-piperidin-4-ylbenzyl)-1,2,3,4-tetrahydroisoquinoline-6-carboxamide], the inhibition at 0.37 µM at purified human HDAC6 came out at 80.7%.

As for `CC1(C(=O)Nc2ccc(CN3CCc4cc(C(=O)NO)ccc4C3)cc2)CCNCC1` [Compound I-4, N-hydroxy-2-(4-{[(4-methylpiperidin-4-yl)carbonyl]amino}benzyl)-1,2,3,4-tetrahydroisoquinoline-6-carboxamide], the inhibition at 0.37 µM on purified human HDAC6 turned out to be 72.2%.

As for `CC(C)(C)OC(=O)N1CCC(c2ccc(CN3CCc4cc(C(=O)NO)ccc4C3)cc2)CC1` [Compound I-5, tert-butyl 4-(4-{[6-[(hydroxyamino)carbonyl]-3,4-dihydroisoquinolin-2(1H)-yl]methyl}phenyl)piperidine-1-carboxylate], the inhibition at 0.37 µM at purified human HDAC6 is 46.2%.

On to `CC(C)(C)OC(=O)N1CCC(C)(C(=O)Nc2ccc(CN3CCc4cc(C(=O)NO)ccc4C3)cc2)CC1` [Compound I-6, tert-butyl 4-{[(4-{[6-[(hydroxyamino)carbonyl]-3,4-dihydroisoquinolin-2(1H)-yl]methyl}phenyl)amino]carbonyl}-4-methylpiperidine-1-carboxylate], for which, on purified human HDAC6, the inhibition at 0.37 µM came out at 61%.

Regarding `CC(C)(C)OC(=O)N1CCC(C)(C(=O)N2CCc3cc(C(=O)NO)ccc3C2)CC1` [Compound I-13, tert-butyl 4-{[6-[(hydroxyamino)carbonyl]-3,4-dihydroisoquinolin-2(1H)-yl]carbonyl}-4-methylpiperidine-1-carboxylate], the CLint scaled at 2 µM in data set [1] was 31.7 mL/min/kg; in data set [2], 46.7 mL/min/kg; in data set [3] it was under 6.33 mL/min/kg. The inhibition at 0.37 µM on purified human HDAC6 amounted to 88.8%.

The values are drawn from patent US8778931B2, “Substituted hydroxamic acids and uses thereof” (Millennium Pharmaceuticals, Inc., priority 2010, dated 2014).
